Laboratory results as given in paper PMC11644009 (Molecules, 2024).

Assays:
[1] = test system: influenza virus A/Vladivostok/2/09 (H1N1); test: Virus inhibitory activity on chicken embryo model (chemical therapeutic index); type: in vivo; conditions: samples 0.0016%–0.2% (0.003–0.4 mg per chicken embryo), Rimantadine 10 µg/mL, Tamiflu 6 µg/mL
Procedure: Rimantadine® (Olainfarm, Olaine, Latvia), alpha-methyltricyclo[3.3.1.1/.7]decan-1-methanamine (in the form of hydrochloride)) was used as a comparison drug at a dose of 10 µg /mL and Tamiflu® (Oseltamivir, Hoffmann-La Roche, Basel, Switzerland, (3R,4R,5S)-4-acetylamino-5-amino-3-(1-ethylpropoxy)-1-cyclohexene-1-carboxylic acid ethyl […], phosphate)) at a dose of 6 µg /mL.
To determine the chemical therapeutic index (CTI), the virus inhibitory activity of samples was studied at concentrations from 0.0016% to 0.2%, which corresponded to doses of 0.003–0.4 mg per chicken embryo (0.06–8 mg/kg) (Table 2).

[2] = test system: hemagglutinating activity of influenza A/Vladivostok/2/09 (H1N1) virus; test: Effect on hemagglutinating activity of influenza virus; conditions: maximum dose 1 mg/100 μL
Procedure: The hemagglutinating activity of viruses was determined according to the standard method [53] using a 0.75% suspension of chicken erythrocytes. When determining the effect of the studied sample on hemagglutinating properties, the sample in different doses was mixed with the virus, and after 30 min of incubation at 37 °C, the hemagglutinating activity was determined using the standard method.

[3] = test system: neuraminidase activity of influenza virus A/Vladivostok/2/09 (H1N1); test: Effect on neuraminidase activity (fluorescent kit); type: biochemical; conditions: maximum dose 1 mg/100 μL
Procedure: To determine the effect of lupinine derivatives 1–5 on neuraminidase activity, the maximum dose of 1 mg/100 μL was used. It was established (Figure 3) that compounds 4 and 5 were able to alter the neuraminidase activity of influenza viruses. It was shown that these two triazole-containing lupinines suppressed neuraminidase activity by no more than 40%.
The determination of the neuraminidase activity of the studied samples was carried out using a fluorescent kit in accordance with the manufacturer’s recommendations (AbCam, Cambridge, UK). The non-fluorescent neuraminidase substrate becomes highly fluorescent when cleaved by neuraminidase. The signal is easily read by fluorescence at Ex/Em = ~320/~450 nm.
Figure 3 The influence of the studied samples on neuraminidase activity.

[4] = test system: influenza virus A/Vladivostok/2/09 (H1N1); type: in vivo; conditions: compound 0.2%, 0.4 mg/ch.e. (8 mg/kg)

Compound | Chemical Therapeutic Index of the Studied Sample [1] | Suppression of hemagglutinating activity [2] | Suppression of neuraminidase activity [3] | Decrease in Influenza Virus Infectivity Titer, lg [4]
COc1ccc(-c2cn(C[C@@H]3CCCN4CCCC[C@H]34)nn2)cc1 [Compound 1, (1S,9aR)-1-{[4-(4-Methoxyphenyl)-1H-1,2,3-triazol-1-yl]methyl}octahydro-2H-quinolizine] | 64.0 |  |  | 
CCc1cc(C(=O)OCc2cn(C[C@@H]3CCCN4CCCC[C@H]34)nn2)c(O)c(C(C)(C)C)c1 [Compound 5, {1-[((1S,9aR)-Octahydro-2H-quinolizin-1-yl)methyl]-1H-1,2,3-triazol-4-yl}methyl-3-tert-butyl-2-hydroxy-5-ethylbenzoate] | >100.0 | no less than 25% | no more than 40% | 
O=Cc1ccc(OCc2cn(C[C@@H]3CCCN4CCCC[C@H]34)nn2)cc1 [Compound 4, 4-({1-[((1S,9aR)-Octahydro-2H-quinolizin-1-yl)methyl]-1H-1,2,3-triazol-4-yl}methoxy)benzaldehyde] | 40.0 |  | no more than 40% | 
Cc1cccc(-c2cn(C[C@@H]3CCCN4CCCC[C@H]34)nn2)c1 [Compound 2, (1S,9aR)-1-{[4-(m-Tolyl)-1H-1,2,3-triazol-1-yl]methyl}octahydro-2H-quinolizine] | 57.0 |  |  | 0.8 lg
CC(N)C12CC3CC(CC(C3)C1)C2 (stereo not drawn) [Rimantadine, alpha-methyltricyclo[3.3.1.1/.7]decan-1-methanamine, reference compound] | 30 |  |  | 
c1ccc(-c2cn(C[C@@H]3CCCN4CCCC[C@H]34)nn2)cc1 [Compound 3, (1S,9aR)-1-[(4-Phenyl-1H-1,2,3-triazol-1-yl)methyl]octahydro-2H-quinolizine] | 8.1 |  |  | 0.0 lg
CCOC(=O)C1=C[C@@H](OC(CC)CC)[C@H](NC(C)=O)[C@@H](N)C1 [Tamiflu, (3R,4R,5S)-4-acetylamino-5-amino-3-(1-ethylpropoxy)-1-cyclohexene-1-carboxylic acid ethyl ether, phosphate, reference compound] | 11.0 |  |  | 
